Source: patent US20040068762A1, “Transgenic non-human mammals expressing a reporter nucleic acid under the regulation of androgen response elements” (priority 2002, published 2004)
Where two headings read alike, the source gives them in different places.

System: androgen receptor

C[C@]12CC[C@H]3[C@@H](CCC4=CC(=O)CC[C@@]43C)[C@@H]1CC[C@@H]2O [testosterone]
luciferase induction over untreated (bone, testosterone 2 mg/kg s.c.): 3.3 fold | luciferase response in kidney (testosterone induction) (kidney, testosterone 2 mg/kg s.c.): No response | luciferase induction over untreated (prostate-seminal vesicles, testosterone 2 mg/kg s.c.): 5.6 fold | luciferase induction over untreated (quadriceps, testosterone 2 mg/kg s.c.): 5.8 fold

CC(O)(CS(=O)(=O)c1ccc(F)cc1)C(=O)Nc1ccc(C#N)c(C(F)(F)F)c1 (centres unmarked) [bicalutamide]
inhibition of the testosterone effect (luciferase expression) (bone, Casodex 50 mg/kg p.o. with testosterone 2 mg/kg s.c.): 86% | luciferase response in kidney (inhibition of testosterone effect) (kidney, Casodex 50 mg/kg p.o. with testosterone 2 mg/kg s.c.): No response | inhibition of the testosterone effect (luciferase expression) (prostate-seminal vesicles, Casodex 50 mg/kg p.o. with testosterone 2 mg/kg s.c.): 90% | inhibition of the testosterone effect (luciferase expression) (quadriceps, Casodex 50 mg/kg p.o. with testosterone 2 mg/kg s.c.): 92%
